Assays:
[1] = Pulmonary retention in isolated perfused rat lung; format: in vitro ADME; conditions: rat, 3 mg/kg, 2 h
[2] = tested on: lungs from sham and PAH rats; assay: Pulmonary retention in isolated perfused rat lung; format: in vitro ADME; conditions: IT route, sham and PAH lungs
in vivo = conditions: male, Sprague-Dawley, rat, 3 mg/kg

O=S(=O)(c1cccc2cnccc12)N1CCCNCC1 [plain fasudil, fasudil]
recovery at 2 h ([1]; IPRL tubes (circuitry), other: intratracheal (IT) via the tracheal cannula, pH 7.4, recovery dose (%) IPRL tubes, IT route, PAH lungs, by subtraction from dose): 16.6 ± 7.7% | recovery at 2 h ([1]; IPRL tubes (circuitry), other: intratracheal (IT) via the tracheal cannula, pH 7.4, recovery dose (%) IPRL tubes, IT route, Sham lungs, by subtraction from dose): 7.4 ± 1% | recovery at 2 h ([1]; lung homogenate, other: intratracheal (IT) via the tracheal cannula, pH 7.4, recovery dose (%) lung, IT route, PAH lungs, fasudil 3 mg/kg): 70.1 ± 7.3% | recovery at 2 h ([1]; lung homogenate, other: intratracheal (IT) via the tracheal cannula, pH 7.4, recovery dose (%) lung, IT route, Sham lungs, fasudil 3 mg/kg): 71.8 ± 2% | recovery at 2 h ([1]; lung homogenate, other: via the cannulated pulmonary artery, mimicking IV, pH 7.4, recovery dose (%) lung, IV-mimicking route, PAH lungs, fasudil 3 mg/kg): 49.6 ± 6.2% | recovery at 2 h ([1]; lung homogenate, other: via the cannulated pulmonary artery, mimicking IV, pH 7.4, recovery dose (%) lung, IV-mimicking route, Sham lungs, fasudil 3 mg/kg): 34.7 ± 3.2% | recovery at 2 h ([1]; perfusate, other: intratracheal (IT) via the tracheal cannula, pH 7.4, recovery dose (%) perfusate, IT route, PAH lungs, fasudil 3 mg/kg): 13.3 ± 2.6% | recovery at 2 h ([1]; perfusate, other: intratracheal (IT) via the tracheal cannula, pH 7.4, recovery dose (%) perfusate, IT route, Sham lungs, fasudil 3 mg/kg): 20.8 ± 2.7% | recovery at 2 h ([1]; perfusate, other: via the cannulated pulmonary artery, mimicking IV, pH 7.4, recovery dose (%) perfusate, IV-mimicking route, PAH lungs, fasudil 3 mg/kg): 39.1 ± 3.9% | recovery at 2 h ([1]; perfusate, other: via the cannulated pulmonary artery, mimicking IV, pH 7.4, recovery dose (%) perfusate, IV-mimicking route, Sham lungs, fasudil 3 mg/kg): 56.5 ± 5.3% | drug concentration in the perfusate [2]: about 10 μg/mL | AUC(0-inf) (in vivo): 5967 ± 25.9 ng·h/mL | Cmax (in vivo; inhaled or intranasal): 3040 ± 635 ng/mL | AUC(0-inf) (in vivo; iv): 5967 ± 25.9 ng·h/mL

Source: article PMC7035787 (Molecular pharmaceutics, 2019)
